According to patent US20070167499A1, “Biaryl linked hydroxamates: preparation and pharmaceutical applications” (A*BIO Pte Ltd., priority 2003, published 2007):

What was measured:
[1] = test system: acetylated H3 in Colo205 cells; test: Histone H3 acetylation assay (western-blot); type: cell-based, human; set-up: key: “Active” means accumulation of acetylated histone was observed when compared with control (without compound); settings: for Histone 3 acetylation: Colo205 cells, 0.1, 1, 5 and 10 μM, after 24 h
Experimental: (§1) Histone H3, H4 and H2A acetylation assay
A hallmark of histone deacetylase (HDAC) inhibition is the increase in the acetylation level of histones. Histone acetylation, including H3, H4 and H2A can be detected by immuno-blotting (western-blot). Colo205 cells, approximately 1.5×10^6 cells/10 cm dish, were seeded in the previously described medium, cultivated for 24 h and subsequently treated with HDAC inhibitory agents at 0.1, 1, 5 and 10 μM final concentration. […] The protein concentration was quantified using BCA method (Sigma Pte Ltd). The protein lysate was separated using 4-12% bis-tris SDS-PAGE gel (Invitrogen Pte Ltd) and was transferred onto PVDF membrane (BioRad Pte Ltd). The membrane was probed separately using primary antibody specific for acetylated H3, acetylated H4 or acetylated H2A (Upstate Pte Ltd). The detection antibody, goat anti rabbit antibody conjugated with horse radish peroxidase (HRP) was used according to the manufacturing instruction (Pierce Pte Ltd). After removing the detection antibody from the membrane, an enhanced chemiluminescent substrate for detection of HRP (Pierce Pte Ltd) was added onto the membrane. After removing the substrate, the membrane was exposed to an X-ray film (Kodak) for 1 sec-20 mins. The X-ray film was developed using the X-ray film processor. The density of each band observed on the developed film could be analysed using UVP Bioimaging software (UVP, Inc, Upland, Calif.). The values were then normalized against the density of actin in the corresponding samples to obtain the expression of the protein.

[2] = test system: MDA-MB435; test: Cell-based proliferation assay for determination of GI50 values, breast cancer cell line; settings: Homo sapiens, MDA-MB-435; 96 h treatment, cyquant cell proliferation assay; read-out: Cellular activities GI50, MDA-MB435
Experimental: Cell-based Proliferation assay for determination of GI50 values
Three different cancer cell lines were obtained from ATCC: Human colon cancer cell line (Colo205), human breast cancer cell lines (MDA-MB435), and human lung cancer cell line (NCl-H522). Colo205 cells and NCl-H522 were cultivated in RPMI 1640 containing 2 mM
L-Glutamine, 5% FBS, 1.0 mM Na Pyruvate. MDA-MB435 cells were cultivated in DMEM containing 2 mM L-Glutamine, 5% FBS. Colo205 cells were seeded in 96-wells plate at 2000 and 5000 cells per well respectively. MDA-MB435 and NCl-H522 cells were seeded in 96-wells plate at 6000 cells per well. The plates were incubated at 37° C., 5% CO2, for 24 h. Cells were treated with compounds at various concentrations for 96 h. Cell growth was then monitored using cyquant cell proliferation assay (Invitrogen Pte Ltd). Dose response curves were plotted to determine GI50 values for the compounds using XL-fit (ID Business Solution, Emeryville, Calif.).

[3] = test system: acetylated H4 in Colo205 cells; test: Histone H4 acetylation assay (western-blot); type: cell-based, human; set-up: key: “Active” means accumulation of acetylated histone was observed when compared with control (without compound); settings: Colo205 cells, 0.1, 1, 5 and 10 μM, after 24 h
Experimental: as §1
A hallmark of histone deacetylase (HDAC) inhibition is the increase in the acetylation level of histones. Histone acetylation, including H3, H4 and H2A can be detected by immuno-blotting (western-blot). Colo205 cells, approximately 1.5×10^6 cells/10 cm dish, were seeded in the previously described medium, cultivated for 24 h and subsequently treated with HDAC inhibitory agents at 0.1, 1, 5 and 10 μM final concentration. After 24 h, cells were harvested and lysed according to the instruction from Sigma Mammalian Cell Lysis Kit. The protein concentration was quantified using BCA method (Sigma Pte Ltd). The protein lysate was separated using 4-12% bis-tris SDS-PAGE gel (Invitrogen Pte Ltd) and was transferred onto PVDF membrane (BioRad Pte Ltd). The membrane was probed separately using primary antibody specific for acetylated H3, acetylated H4 or acetylated H2A (Upstate Pte Ltd). The detection antibody, goat anti rabbit antibody conjugated with horse radish peroxidase (HRP) was used according to the manufacturing instruction (Pierce Pte Ltd). After removing the detection antibody from the membrane, an enhanced chemiluminescent substrate for detection of HRP (Pierce Pte Ltd) was added onto the membrane. After removing the substrate, the membrane was exposed to an X-ray film (Kodak) for 1 sec-20 mins. The X-ray film was developed using the X-ray film processor. The density of each band observed on the developed film could be analysed using UVP Bioimaging software (UVP, Inc, Upland, Calif.). The values were then normalized against the density of actin in the corresponding samples to obtain the expression of the protein.

Row | SMILES | Histone 3 acetylation (after 48 hrs) ([1]; Colo205 cells, after 48 hrs) | GI50 [2] | Histone 3 acetylation [1] | Histone 4 acetylation [3]
1 | O=C(Cc1ccc(-c2csc(NC(=O)Cc3ccccc3)n2)s1)NO [Example 1, N-Hydroxy-2-[5-(2-phenylacetylamino-thiazol-4-yl)-thiophen-2-yl]-acetamide] | Active (after 48 hrs) | – | – | –
2 | Nc1nc(-c2ccc(/C=C/C(=O)NO)cc2)cs1 [Example 23, 3-[4-(2-Amino-thiazol-4-yl)-phenyl]-N-hydroxy-acrylamide] | – | 4460 nM | Active | Active
3 | O=C(NO)c1ccc(-c2ccc(CNCCc3ccccc3)cc2)s1 [Example 26, 5-[4-(Phenethylamino-methyl)-phenyl]-thiophene-2-carboxylic acid hydroxyamide] | – | 2660 nM | Active | Active
4 | O=C(NO)c1ccc(-c2ccc(CNCCc3ccccn3)cc2)s1 [Example 27] | – | 1490 nM | Active | Active
